In US20230107216A1, “PANTETHEINE DERIVATIVES AND USES THEREOF” (Comet Therapeutics, Inc., priority 2018, published 2023):
Read-outs that look alike come from different tables or passages of the source.

What was measured:
[1] = test system: Propionic Acidemia (PA) primary fibroblasts Tsi 6337; experiment: Mitochondrial respiration, XFe96 Extracellular Flux Analyzer (OCR/ECAR), PA fibroblasts Tsi 6337; format: cell-based; settings: Homo sapiens, Fibroblast, read-out: Increase in Maximal Respiratory Capacity AUC
Description: The effect of the compounds of the present disclosure on mitochondrial respiration was measured with a XFe96 Extracellular Flux Analyzer (Seahorse Bioscience, Agilent Technologies) and Oxygen consumption Rate (OCR) and Extracellular acidification rate (ECAR) determined.
Cell culture and treatments. Primary adherent fibroblasts were cultured in minimum essential medium (MEM) (Gibco, 25030081) supplemented with 2 mM L-Glutamine (Gibco, 25030081), 15% fetal bovine serum (FBS) (Gibco, 26400044) and 1% penicillin/streptomycin (Gibco, 5140122) at 37° C. and 5% CO2. Cells were collected for either passaging or experiment at ˜70-80% confluence. Cells were obtained by trypsinization and seeded at 20000 cells/well in cell culture microplates (Seahorse Bioscience, 101085-004) and allowed to adhere for 16 hours in culture media.
By profiling different primary cells and/or optimizing their culture media or environmental components one can select cell lines and/or conditions that are appropriate for the biological or disease model. In the present example, 24 hours prior to OCR and ECAR profiling, media was changed to Dulbecco's Modified Eagle Medium (DMEM, Agilent Seahorse 103575-100) with the appropriate supplements for the different primary cells (10 mM glucose, 2 mM L-glutamine, 1 mM pyruvate, 10% FBS; 1 mM glucose, 2 mM L-glutamine, 1 mM pyruvate, 10% FBS; 10 mM glucose, 10% FBS; 5 mM glucose 10% FBS; 1 mM glucose 10% FBS). Cells used in this example were: Propionic Acidemia (PA) (GM00371, GM03590 Coriell Institute for Medical Research, Tsi 6337, Tsi 4626, Tsi 3618 Trans-Hit Bio), Methylmalonic Acidemia (MMA) (GM01673, Coriell Institute for Medical Research, Tsi 5224 Trans-Hit Bio), Branched chain ketoacid dehydrogenase kinase (BCKDK) (GM00612, GM00649 Coriell Institute for Medical Research), Subnormal activation of pyruvate dehydrogenase complex (PDH) (GM01503 Coriell Institute for Medical Research), Very long-chain acyl-CoA dehydrogenase (VLCAD) (GM17475), Leigh Syndrome (LS) (GM03672, GM13411 Coriell Institute for Medical Research), Pyruvate Carboxylase Deficiency (PC) (GM00444 Coriell Institute for Medical Research), Glutaric Acidemia-I (GA) (GM10653), Friedreich's Ataxia (FXN) (GM04078 Coriell Institute for Medical Research, Huntington's disease (HD) (GM21756 Coriell Institute for Medical Research), Ornithine Transcarbamylase Deficiency (OTC) (GM12756 Coriell Institute for Medical Research), Kearns-Sayre Syndrome (KSS) (GM06225 Coriell Institute for Medical Research).
One hour before the assay, the cells were washed with freshly prepared unbuffered serum free-Seahorse XF Assay medium (Seahorse Bioscience, North America, USA, 103575-100) with the same supplements as for the previous 24 hour incubation.
After baseline measurements of OCR, cells were challenged with compounds of the present disclosure at different concentrations (10 to 50 μM) or vehicle (DMSO, 0.1%) and a post-compound baseline was recorded. OCR was measured after sequentially adding to each well 1 μg/ml oligomycin (inhibitor of ATP synthase Sigma-Aldrich, 753531), then maximal OCR was determined with carbonyl cyanide 4-(trifluoromethoxy) phenylhydrazone (FCCP, Sigma-Aldrich, C2920), (uncoupler of oxidative phosphorylation) and 0.5 μM of rotenone (Sigma-Aldrich, R8875) plus antimycin A (Sigma-Aldrich, A8674) (inhibitors of mitochondrial complex I and III) for determination of rotenone-antimycin insensitive respiration together with Hoechst for nuclear staining in situ when normalized to cell counts. After the analysis and nuclear staining, the XFp microplate was transferred to the Cytation 5, and the nuclear images were captured, the individual nuclei were identified and counted by BioTek Gen5 software. Data were expressed as pmol of O2 per minute and normalized by nuclear staining and baselined to pre-compound addition.
Assay conditions were as stated below.
Assay specifics on assay conditions are indicated below when readouts were normalized to cell counts. […]

[2] = test system: monocyte-derived M1 macrophages; experiment: M1 differentiation assay (macrophage TNFα, IL6, IL10 ELISA, FACS); format: cell-based, human; settings: Homo sapiens, Macrophage
Outline: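 CD14+ human blood monocytes (100,000) differentiated 6 days with 10 ng/ml GM-CSF plus compound at 10 or 50 μM, refreshed days 2 and 4. Matured 24 h with GM-CSF, IFNγ, LPS plus compound. Supernatant TNFα, IL6, IL10 by ELISA; FACS M1 phenotype CD86+CD68+CD163−.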

HepG2 cells = experiment: Mitochondrial membrane potential (MITO-ID MP detection Kit); format: cell-based; settings: Homo sapiens, 168 h, 7 days, read-out: % increase in Mitochondrial Membrane Potential
Description: HepG2 cells (ATCC, HB-8065) were cultured (5% CO2 at 37° C.) and plated in Poly-D-Lysine 384-Well plate (Corning, 356663) at a density of 160000 cells/mL in 50 μL/well. Culture and assay media consisted of DMEM (Gibco, 11995-065) supplemented with 1% Penicillin-Streptomycin and 10% FBS (Hyclone, SV30087.03).
MITO-ID® MP detection Kit (ENZ-51018) was used and manufacturer instructions followed. Cells were allowed to settle for 30 min at room temperature and further incubated overnight (37° C. and 5% CO2) for adherence. Next day, test compounds (50-10 μM) and vehicle DMSO (0.2%) were added at the recommended volumes to the 384-well plate for 7 days without media change using a Tecan compound dispenser. All the solutions and wash buffers were prepared and dispensed according to manufacturer's volumes for a 384-well plate format.

[3] = test system: primary culture of rat embryo mesencephalic cells (microglia, astrocytes and neurons) exposed to LPS; experiment: Neuroprotective effect on damage induced by LPS on culture of mesencephalic neurons (NO, TNF-α, IL-1β, TH positive neurons); format: cell-based; settings: Rattus norvegicus, Neuron, 120 h, 50 uM, after 5 days of LPS exposure; list at threshold 15%; read-out: % reversion of TH positive neurons
Description: Drug preparation. […] The stock solutions will be prepared 1000× the concentration in 100% DMSO. The final concentration of the vehicle (DMSO) is set at 0.1%.
Test animals. Pregnant Wistar rats (Janvier; France) are used for the study. They are group-housed and maintained in a room with controlled temperature (21-22° C.) and a reversed light-dark cycle (12h/12h; lights on: 17:30-05:30; lights off: 05:30-17:30) with food and water available ad libitum.
The protocol is performed in 3 independent cultures. For each culture, each condition is performed in sextuplicate.
Female rat of 15 days gestation is killed by cervical dislocation. Fetuses are removed from the uterus and their brains are harvested and placed in ice-cold medium (Leibovitz's L15 medium, Gibco). Only ventral mesencephalic flexure is used for the cell preparations. The midbrain is dissociated by trypsinization. The reaction is stopped, and the suspension is triturated and centrifuged. The pellet of dissociated cells is resuspended in culture medium consisted of DMEM-F12 (Gibco), containing 10% FBS (ATCC), 10% Horse serum (Gibco) and 2 mM L-glutamine (Gibco). Viable cells are counted and seeded on 96-well plates, precoated with poly-L-lysine. Cells are maintained in a humidified incubator at 37° C. in 5% CO2-95% air atmosphere. Half of the medium is changed on day 2 and day 5.
Treatment. On day 7, culture media are removed and replaced by new medium consisting of DMEM-F12 (Gibco) supplemented with 2% FBS (ATCC), 2% Horse serum (Gibco) and 2 mM L-glutamine (Gibco) and containing vehicle or test substances. After 1-hour exposure, LPS at 10 ng/ml is added and exposure further continued for 24 hours or 5 days period.
Inflammatory response measurement and neuronal death evaluation. NO production is measured in the media 24h and 5 days after LPS exposure using the Griess reagent kit (Molecular Probes). The Griess reagent Assay is a colorimetric reaction assay which measures the conversion of a sulfanilic salt into an azo dye product by nitrite. Visible wavelength absorbance data is collected using a 96-well plate reader at 570 nm (Multiskan EX, Thermo Fisher, France). IL-1β and TNF-α release are measured in the media 24h after LPS exposure using the ELISA development kit (PeproTech). The ELISA plate, previously coated with anti-IL-1β or anti-TNF-αantibody at 1 μg/ml, is incubated 1h with PBS containing 1% of BSA (bovine serum albumin). After washing four times with PBS containing 0.05% of Tween-20, the plate is successively incubated 2h with supernatant, 2h with biotinylated antibody at 0.5 μg/ml in PBS containing 0.1% of BSA and 0.05% of Tween-20, 45 min with Avidin-HRP conjugated at 1/2000 and 30 min with color ABTS substrate (Sigma). Visible wavelength absorbance data is collected using a 96-well plate reader at 405 nm with wavelength correction set at 650 nm (Multiskan EX, Thermo Fisher, France).
Immunodetection of tyrosine hydroxylase positive neurons. On day 12 (5 days after LPS exposure), cultures are fixed 30 min at 4° C. with paraformaldehyde in PBS (4%, Sigma). Then, cells are successively permeabilized with 0.1% Triton X100 for 30 min, saturated with PBS containing 3% of BSA (bovine serum albumin) and are incubated 2h with anti-tyrosine hydroxylase antibody (Sigma, 1:10000; clone TH-2) at 1/10 000 in PBS containing 0.5% of BSA. Cells are washed three times with PBS containing 0.5% of BSA, and they are incubated 1h with goat anti mouse antibody coupled with AF488 (Invitrogen A11001) diluted at 1/1000 in PBS containing 0.5% of BSA. Finally, nuclei are stained with DAPI at 1/1000 in PBS containing 0.5% of BSA. After rinsing with PBS, the plate is visualized and examined with Cell Insight HCS (Thermo Scientific) to determine the number of tyrosine hydroxylase positive cells per well.
Statistical Analysis. The drug-induced effect on NO and cytokines is calculated by setting the response of the LPS-stimulated control as 100%. […]

[4] = PA Tsi 6337, assay condition A (10 mM glucose, 2 mM L-glutamine, 1 mM pyruvate, 10% FBS)

| SMILES | activation at 10 µM [1, 4] [%] | inhibition at 10 µM ([2]; 10 uM, read-out: % decrease in Macrophage IL-6 Secretion) [%] | activation at 50 µM ([2]; 50 uM, read-out: % Increase in IL-10 Secretion) [%] | activation at 10 µM (HepG2 cells) [%] | inhibition at 50 µM [3] [%] | activation at 10 µM ([1]; PA Tsi 6337, assay condition D (1 mM glucose, 10% FBS)) [%] | activation at 50 µM (HepG2 cells; 50 uM) [%] |
| --- | --- | --- | --- | --- | --- | --- | --- |
| CC(C)(CO)[C@@H](O)C(=O)NCCC(=O)NCCSC(=O)C1CCC(=O)O1 (stereo partly drawn) [Compound 1229, S-2-{3-[(R)-2,4-dihydroxy-3,3-dimethylbutyrylamino]propionylamino} ethyl 5-oxo-3,4-dihydro-2H-furan-2-carbothioate] | ≥ 10 | ≥ 30 | ≥ 30 | > 20 | – | – | – |
| CC(C)(CO)[C@@H](O)C(=O)NCCC(=O)NCCS [Preparatory Ex 5] | – | – | – | – | ≥ 15 | – | – |
| COC(=O)CCC(=O)OCC(C)(C)[C@@H](O)C(=O)NCCC(=O)NCCSC(=O)CCC(=O)OC [Compound 1230] | ≥ 10 | – | – | > 30 | – | ≥ 10 | – |
| C[C@@H](CC(=O)SCCNC(=O)CCNC(=O)[C@H](O)C(C)(C)CO)OC(=O)CCC(=O)O [Compound 1247, 4-{[(2S)-4-[(2-{3-[(2R)-2,4-dihydroxy-3,3-dimethylbutanamido]propanamido}ethyl)sulfanyl]-4-oxobutan-2-yl]oxy}-4-oxobutanoic acid] | ≥ 10 | – | – | – | – | – | > 20 |
